Assay results published in the supplement of paper PMC13380429.

Legend:
Details in all cases: 72 h
HepG2 [1] = assay: relative viability EC50 (midpoint between 100% and the lowest measured viability); higher = less toxic
Caco-2 [2] = assay: as above
Calu-3 [3] = assay: as above
U2OS [4] = assay: as above
Vero E6 [5] = assay: as above
HepG2 [6] = assay: drug sensitivity score (DSS) for viability; higher = more toxic; extreme values may be limits of the assay
Caco-2 [7] = assay: as above
Calu-3 [8] = assay: as above
U2OS [9] = assay: as above
Vero E6 [10] = assay: as above
HepG2 [11] = assay: cell viability relative to DMSO; higher = less toxic
Caco-2 [12] = assay: as above
Calu-3 [13] = assay: as above
U2OS [14] = assay: as above
Vero E6 [15] = assay: as above

SMILES	relative viability EC50 (HepG2 [1]) [µM]	relative viability EC50 (Caco-2 [2]) [µM]	relative viability EC50 (Calu-3 [3]) [µM]	relative viability EC50 (U2OS [4]) [µM]	relative viability EC50 (Vero E6 [5]) [µM]	drug sensitivity score (HepG2 [6])	drug sensitivity score (Caco-2 [7])	drug sensitivity score (Calu-3 [8])	drug sensitivity score (U2OS [9])	drug sensitivity score (Vero E6 [10])	cell viability (HepG2 [11]; 1 nM) [%]	cell viability (HepG2 [11]; 10 nM) [%]	cell viability (HepG2 [11]; 100 nM) [%]	cell viability (HepG2 [11]; 1000 nM) [%]	cell viability (HepG2 [11]; 10000 nM) [%]	cell viability (Caco-2 [12]; 1 nM) [%]	cell viability (Caco-2 [12]; 10 nM) [%]	cell viability (Caco-2 [12]; 100 nM) [%]	cell viability (Caco-2 [12]; 1000 nM) [%]	cell viability (Caco-2 [12]; 10000 nM) [%]	cell viability (Calu-3 [13]; 1 nM) [%]	cell viability (Calu-3 [13]; 10 nM) [%]	cell viability (Calu-3 [13]; 100 nM) [%]	cell viability (Calu-3 [13]; 1000 nM) [%]	cell viability (Calu-3 [13]; 10000 nM) [%]	cell viability (U2OS [14]; 1 nM) [%]	cell viability (U2OS [14]; 10 nM) [%]	cell viability (U2OS [14]; 100 nM) [%]	cell viability (U2OS [14]; 1000 nM) [%]	cell viability (U2OS [14]; 10000 nM) [%]	cell viability (Vero E6 [15]; 1 nM) [%]	cell viability (Vero E6 [15]; 10 nM) [%]	cell viability (Vero E6 [15]; 100 nM) [%]	cell viability (Vero E6 [15]; 1000 nM) [%]	cell viability (Vero E6 [15]; 10000 nM) [%]
CNCCc1ccc(O)c(O)c1 [deoxyepinephrine]	> 10	> 10	> 10	> 10	> 10	0	0	0	0	0	97.5	97.2	108	91.8	96.7	95.5	95.8	106	102	89.6	94.5	104	95.8	91.6	98.1	95	97	94.3	101	95.5	107	99.6	100	101	103
CNCCCN1c2ccccc2CCc2ccccc21 [desipramine]	> 10	> 10	> 10	> 10	> 10	0	0	0	0	0	119	114	105	113	89	98.9	111	102	94.3	90.6	104	101	104	109	96.2	104	102	104	98.1	97.1	107	103	97	102	99.9
C[C@]12CC[C@H]3[C@@H](CCC4=CC(=O)CC[C@@]43C)[C@@H]1CC[C@@H]2C(=O)CO [desoxycortone]	> 10	> 10	> 10	> 10	> 10	0	0.2	0	0	0	101	95.8	97	87.1	104	100	101	102	97	87.4	98.5	95.1	91.5	105	95.8	103	99.2	97.1	97.6	95.4	101	99.2	93.6	95.8	101
c1ccc2c(c1)CN1CCCC1=N2 [desoxypeganine]	> 10	> 10	> 10	> 10	> 10	0	0	0	0	0	89.7	75.1	91.6	91.1	96.8	97.6	113	105	94.7	97.9	95.1	111	99.6	89.2	107	98.7	101	93	94.5	99.3	98.4	96.5	105	98	95.2
c1ccc2c(c1)sc1ccccc12 [dibenzothiophene]	> 10	> 10	> 10	> 10	> 10	0	0	0	0	0	102	96.8	104	106	101	101	98.7	99.9	91.1	99.8	99.4	103	92.1	96.1	101	105	101	104	96.7	104	100	96.6	99	98.5	98.8
CN1CCN(c2cc3c(cc2F)c(=O)c(C(=O)O)cn3-c2ccc(F)cc2)CC1 [difloxacin]	> 10	> 10	> 10	> 10	> 10	0	0	0	0	0	93.6	110	105	103	93.7	92.5	95.1	102	94.7	91.1	105	90.1	95.2	98.6	108	92	95.4	98.9	99.1	104	109	101	96.7	106	99.1
O=C(O)CCc1cc(I)c(Oc2ccc(O)cc2)c(I)c1 [diiodothyropropionic-acid]	> 10	> 10	> 10	> 10	> 10	0	0	0	0	0.7	104	95	113	103	99.8	113	124	94.4	113	109	96.8	101	94.5	99.6	93.6	96.2	99.1	95.8	98.4	96.6	105	103	104	87.1	92.1
CCCCC[C@H](O)/C=C/[C@H]1[C@H](O)CC(=O)[C@@H]1C/C=C\CCCC(=O)O [dinoprostone]	> 10	> 10	> 10	> 10	> 10	0	0	0	0	0	99.8	104	90.4	103	99	101	104	101	102	95.2	96.3	90	90.2	94	94.8	101	98.2	102	98.5	98.3	101	107	101	103	94.9
C[C@H](N)C(=O)N[C@@H](CCC(N)=O)C(=O)O [dipeptamin]	> 10	> 10	> 10	> 10	> 10	0	0	0	0	0	104	93.2	95.5	100	96.1	97.4	104	96.5	95.2	110	101	98.9	94.7	95.1	103	95.9	106	98.6	103	98.9	99.5	98.1	94.1	98	95.4
CC(C)N(CCC(C(N)=O)(c1ccccc1)c1ccccn1)C(C)C (stereo not given) [disopyramide]	> 10	> 10	> 10	> 10	> 10	0	0	0	0	0	105	86.8	94.7	91.9	99.4	94.4	104	101	102	91.8	101	93.2	96.3	96.9	89.7	103	102	100	99.7	95.7	102	101	96	97.7	97.5
CCc1ccc(C(=O)C(C)CN2CCCCC2)cc1 (stereo not given) [eperisone]	> 10	> 10	> 10	> 10	> 10	0	0	0	0	0	107	95.5	95.8	95.4	100	98.6	106	91.7	102	98.5	103	93.7	87.5	101	88.8	93.6	102	96.2	99.9	94.9	105	99.7	106	103	105
NC1=NCC2c3ccccc3Cc3ccccc3N12 (stereo not given) [epinastine]	> 10	> 10	> 10	> 10	> 10	0	0	0	0	0	97.3	102	105	99.1	102	91.6	87.4	95	98.9	93.3	99.3	103	98.2	98	92	97	102	91.7	92.8	98.6	98.6	105	99.7	96	99.5
C[C@]12CC[C@@H]3c4ccc(O)cc4CC[C@H]3[C@@H]1C[C@@H](O)[C@@H]2O [estriol]	> 10	> 10	> 10	> 10	> 10	0	0	0	0	0	106	103	96.8	90.4	96.1	97.5	96.3	101	105	105	94.5	96.5	95.6	93.7	103	99.3	97.4	101	101	102	96	99.1	96.5	89.2	105
